The text below walks through data of PMC9599254, “Human Milk Oligosaccharide Utilization in Intestinal Bifidobacteria Is Governed by Global Transcriptional Regulator NagR” (mSystems, 2022).

The target of one series is T1, NagR (Bifidobacterium longum, UniProt A0ACD7UQ49).
T1 construct: gene BLIJ_0896; full-length as described, N-terminal His tag, codon-optimized synthetic gene in in-house pET-49b(+), expressed in E. coli BL21(DE3), Ni-NTA purified; tag removal not mentioned
T1 sequence (A0ACD7UQ49 36-409 limits assumed): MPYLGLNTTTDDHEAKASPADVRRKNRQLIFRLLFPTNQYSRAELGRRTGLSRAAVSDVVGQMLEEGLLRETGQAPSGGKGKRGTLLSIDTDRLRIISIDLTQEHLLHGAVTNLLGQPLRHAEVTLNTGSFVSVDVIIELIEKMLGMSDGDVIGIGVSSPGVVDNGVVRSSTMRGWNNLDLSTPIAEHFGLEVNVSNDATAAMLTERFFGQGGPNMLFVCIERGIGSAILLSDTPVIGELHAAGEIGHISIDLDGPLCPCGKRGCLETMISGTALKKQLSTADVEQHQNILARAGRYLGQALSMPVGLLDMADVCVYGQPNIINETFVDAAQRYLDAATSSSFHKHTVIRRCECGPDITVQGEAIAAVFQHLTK
The series is described as follows: EMSA, disruption of NagR-DNA complex. The conditions noted are these: 25 nM NagR, 1 nM IRD700-labelled hmoA operator probe; pH 7.5, 50 mM KCl, 5 mM MgCl2, room temperature; effector releasing DNA. It is filed as binding. On the technique in general: In EMSA bound probe runs differently from free probe, usually more slowly.

Series [1] concerns NagR (Bifidobacterium longum subsp. infantis ATCC 15697 (= JCM 1222)). The series is described as follows: EMSA. The conditions noted are these: no robust shift even at >500 nM NagR; 10 mM Tris-HCl pH 7.5, 50 mM KCl, 5 mM MgCl2, 2.25 mM DTT, 0.125% Tween 20, 2.5% glycerol; 1 nM probe, 0-2000 nM NagR, 60 min, room temperature; 6% gel, 0.5x ….

As usually defined, the EC50 is the midpoint of the concentration-response curve.

Where only a bound is given, the exact number is not on record here.

`CC(=O)N[C@H]1[C@@H](OP(=O)(O)O)O[C@H](CO)[C@@H](O)[C@@H]1O` [GlcNAc-1P] yielded an EC50 on NagR of 490 ± 60 µM.

The compound `CC(=O)N[C@H]1C(O)O[C@H](CO)[C@@H](O)[C@@H]1O` (stereo partly shown) [GlcNAc] gave an EC50 on NagR of 330 ± 50 µM.

With “ATTTCGTCGTTGAAATTGTTATGAAACTTCACCAATAAATTCCAGTGTA (double strand) [nagB_II probe]”, the K half in series [1] was more than 500 nM. As to “GGGCCTGATGCAAATATGTTAAGGCTGTTGACAGTGCTGGCTCCCGTAC (double strand) [hmoA6 probe]”, the K half in series [1] was more than 500 nM.
